{"source": "patent US11952328B2", "about": "“Selective ship inhibitors for treating disease” (THE RESEARCH FOUNDATION FOR THE STATE UNIVERSITY OF NEW YORK, priority 2018, dated 2024)", "key": {"[1]": {"test_system": "RMA-Rael cells", "assay": "RMA-Rael viability following in vitro treatment", "assay_type": "cell-based, mice", "conditions": "24 h, doses given as 5-20 pM, vs solvent only", "excerpt": "FIGS. 5A-5I show the effects of SHIP1 inhibitor as a chemotherapeutic. […] FIG. 5D and FIG. 5E show the representative histograms and box-and-whisker plots of FasL expression by NK cells from C56BL/6 (p=0.0002; Unpaired t test with Welch's correction) or RAG1−/− (p<0.0001; Mann-Whitney U test) tumor challenged, SHIP inhibitor or vehicle treated hosts. […] (NK cells p=0.0192; Unpaired t test with Welch's correction. T cells p=0.0659; Mann-Whitney U test). Additionally, FIGS. 5A-5G show the analysis by flow cytometry on day 3 after hosts receive SHIP inhibitor or vehicle for two consecutive days. NK cells are defined as NK1.1+CD3ε−. The graphs are representative of at least two independent experiments with at least four SHIP inhibitor and vehicle treated mice. […] Viability is expressed as frequency at a given concentration expressed as a percentage of solvent only treated cells. The kill curve summarizes pooled data from three independent experiments using six replicate wells/concentration with mean ±SEM indicated (n=18 per group. One-way ANOVA with Dunnett's multiple comparisons. 0 pM vs. 20 pM Adjusted p value =0.0001. 0 pM vs. 15 pM Adjusted p value =0.0001. 0 pM vs. 10 pM Adjusted p value =0.0001. 0 pM vs. 7.5 pM Adjusted p value =0.0001. 0 pM vs. 5 pM Adjusted p value =0.0001). […]"}, "[2]": {"test_system": "MC-38", "assay": "MC-38 viability following in vitro treatment", "assay_type": "cell-based, mice", "conditions": "in vitro 24 h; all concentrations N.S. vs solvent only", "description": "FIG. 7A and FIG. 7B show CT26 (FIG. 7A) and MC-38 (FIG. 7B) viability following in vitro treatment with 3AC for 24 h at indicated doses. Relative viability is expressed as frequency compared to solvent only treated cells. Kill curve summarizes pooled data from three independent experiments using six replicate wells/concentration with mean±SEM indicated. BALB/C mice were challenged with subcutaneous injection of CT26 colon carcinoma cells in the right flank. Mice were treated with either 2 consecutive days of 3AC or vehicle control each week as in FIG. 4A. Tumor size at […] 28 days (FIG. 7C), and tumor weight on day 28 determined after dissection of tumor (FIG. 7E). […] C57BL/6 mice were challenged with subcutaneous injection of MC-38 colon carcinoma cells in the right flank. Mice were treated with either 2 consecutive days of SHIP inhibitor or vehicle control each week as in FIG. 4A. Tumor size at 14, 21 and 25 days (FIG. 7D), and tumor weight (FIG. 7F) on day 25 were determined after dissection of tumor. […] FIG. 7A (n=18 per group. One-way ANOVA with Dunnett's multiple comparisons. 0 μM vs. 20 μM Adjusted p value=0.0463. All other concentrations of SHIP inhibitor compared with solvent only N.S.). FIG. 7B (n=18 per group. One-way ANOVA with Dunnett's multiple comparisons. All concentrations of SHIP inhibitor compared with solvent only N.S.). […]"}}, "note": "Entries after “also recorded” stand apart in the source; their conditions may differ.", "data": [{"smiles": "CC(C)CCC[C@@H](C)[C@H]1CC[C@H]2[C@@H]3CCC4C[C@H](N)CC[C@]4(C)[C@H]3CC[C@]12C", "note": "(stereo partly drawn) [Compound 3AC, 3-α-aminocholestane]", "values": [{"measurement": "RMA-Rael viability (direct killing)", "setting": "[1]", "result": "capable of directly killing RMA-Rael cells; also recorded: cytotoxic"}, {"measurement": "MC-38 viability (direct killing)", "setting": "[2]", "result": "resistant to direct killing"}]}]}
